Reference: patent US20240277658A1, “NLRP3 ACTIVATORS FOR USE IN THE TREATMENT OF INFECTIOUS DISEASES OR CANCER BY ACTIVATING NLRP3 INFLAMMASOME” (ALBERT-LUDWIGS-UNIVERSITÄT FREIBURG, priority 2020, published 2024)
Several values for one entry are separate records, joined by “and”; a condition that tells them apart may be missing. Equal values may be shown once. Read-outs that look alike come from different tables or passages of the source.

Key:
[1] = system: BMDCs; assay: LDH release (lytic cell death, pyroptosis) from LPS-primed BMDCs; format: cell-based, mouse; conditions: for cytotoxicity at 18.75 µM / cytotoxicity at 37.5 µM / cytotoxicity at 75 µM / cytotoxicity at 25 µM / cytotoxicity at 50 µM / cytotoxicity at 100 µM: Mus musculus, BMDC; for Average (% positive control): LDH release
Procedure: (§1) This was tested in cell culture in several different in vitro assays classically used to investigate inflammasome activation. These include measuring inflammasome-dependent lytic cell death (pyroptosis) by detecting release of the cytosolic enzyme lactate dehydrogenase (LDH) using a commercial colorimetric assay and release of proinflammatory cytokines like IL-1β by enzyme-linked immunosorbent assay (ELISA), analyzing cleavage and activation of caspase-1 and IL-1β by immunoblotting and immunofluorescence imaging of ASC speck formation. Lytic cell death was determined via LDH release. Assay results for compounds are illustrated in the Tables below, wherein the concentration of the compounds tested had been 50 μM or as indicated in the table, and the concentration of the known activators has been tested with 5 μM of nigericin, 100 μM of each R837 and CL097. For classification of the activity of a given molecule, release of IL-1β was quantified as % of IL-1% of a respective control activator used for the experiment (highlighted in tables with bold letters). The compounds listes in Table 1 were classified into 4 groups depending on their ability to induce the NLRP3 inflammasome activation, assessed by % IL-1β release as compared to the positive control.
(§2) Mouse bone marrow-derived dendritic cells (BMDCs) were isolated from femurs and tibias previously described (Gross, Olaf, 2012, “Measuring the inflammasome”, Methods in molecular biology, Clifton, N.J., 844, pp. 199-222.). In brief, tibias and femurs were carefully removed and put to sterile 70% ethanol for 1 minute. Using a 22-G needle attached to a 20 ml-syringe filled with sterile flushing medium, the bone marrow was pressed through the mesh of a […] cell strainer. The cells were spun down by centrifugation at 400×g, 4° C. for 5 minutes and red blood cells lysed by resuspension and incubation for 5 minutes at room temperature in RBC lysis buffer. 9 ml of flushing medium were added and cells were again spun down by centrifugation at 400×g, 4° C. for 5 minutes. Cells were then resuspended in BMDC medium (RPMI, 10% fetal bovine serum, 1% penicillin-streptomycin100 U/ml, 20 ng/ml recombinant murine GM-CSF), counted and plated at a density of 0.5×10^6 cells ml^−1 in 10 ml medium and incubated at 37° C., 5% CO2 in a humidified incubator. After 2 days, 10 ml of fresh medium were added to the cells and after 4 days, the medium was fully exchanged to 20 ml of fresh medium. The cells were allowed to differentiate for 6 to 8 days before usage.
(§3) For canonical inflammasome activation BMDCs after 7-9 days of differentiation were harvested and counted with a Neubauer Chamber (Hecht Assistant) and the concentration was set to 1 Mio cells ml^−1. 100 μl cell suspension per well were seeded in 96-well plates. The cells were primed with 50 ng ml^−1 E. coli K12 ultra-pure LPS for 3 hours and subsequently treated with canonical inflammasome activators or experimental compounds for 3 hours if not indicated differently (incubation time FIG. 4D, 5, 7, 8, 11, 13-18: 3 h, FIG. 12: 4 h). Concentrations of the stimuli were as follows if not indicated differently: 5 μM nigericin, 100 μM imiquimod (also known as R837), 100 μM CL097, 100 μM R848, […] poly(dA:dT), 300 μg ml^−1 MSU. If an inhibitor was used before stimuli treatment, the inhibitor was added after 2.5 hours of priming and it was incubated for 30 minutes before inflammasome activation. Inhibitors were used as follows: 3 μM MCC950, 45 mM KCl, 30 μM ebselen (2-Phenyl-1,2-benzoselenazol-3-one), 5 μM cytochalasin D (see FIGS. 8, 11, 12 and 17).
(§4) All inflammasome stimulations were performed in three technical replicates for each condition. […]

[2] = target: T1, NLRP3 inflammasome (Mus musculus, UniProt Q8R4B8); assay: IL-1β release from LPS-primed BMDCs (ELISA) as readout of NLRP3 inflammasome activation; format: cell-based; conditions: for IL-1β: individual replicate values; for Average (% positive control): IL-1β
T1 construct: endogenous in cells; host or cells: primary mouse bone marrow-derived dendritic cells (BMDCs), LPS-primed
Procedure: as §1, §2, §3, §4

[3] = 25 μM, positive control EN22 10 μM
[4] = 50 μM, positive control EN22 10 μM
[5] = 75 μM, positive control EN22 10 μM
[6] = 25 μM, AH series table, read-out: Average LDH release (% of max.)
[7] = 25 μM, individual replicate values, AH series table, read-out: LDH release (% of max.)
[8] = 50 μM, AH series table, read-out: Average LDH release (% of max.)
[9] = 50 μM, individual replicate values, AH series table, read-out: LDH release (% of max.)
[10] = 75 μM, individual replicate values, read-out: LDH release (% of max.)
[11] = 75 μM, read-out: Average LDH release (% of max.)
[12] = 25 μM, positive control EN22 25 μM
[13] = 50 μM, positive control EN22 25 μM
[14] = 100 μM, positive control EN22 25 μM

T1 sequence (Q8R4B8 whole entry): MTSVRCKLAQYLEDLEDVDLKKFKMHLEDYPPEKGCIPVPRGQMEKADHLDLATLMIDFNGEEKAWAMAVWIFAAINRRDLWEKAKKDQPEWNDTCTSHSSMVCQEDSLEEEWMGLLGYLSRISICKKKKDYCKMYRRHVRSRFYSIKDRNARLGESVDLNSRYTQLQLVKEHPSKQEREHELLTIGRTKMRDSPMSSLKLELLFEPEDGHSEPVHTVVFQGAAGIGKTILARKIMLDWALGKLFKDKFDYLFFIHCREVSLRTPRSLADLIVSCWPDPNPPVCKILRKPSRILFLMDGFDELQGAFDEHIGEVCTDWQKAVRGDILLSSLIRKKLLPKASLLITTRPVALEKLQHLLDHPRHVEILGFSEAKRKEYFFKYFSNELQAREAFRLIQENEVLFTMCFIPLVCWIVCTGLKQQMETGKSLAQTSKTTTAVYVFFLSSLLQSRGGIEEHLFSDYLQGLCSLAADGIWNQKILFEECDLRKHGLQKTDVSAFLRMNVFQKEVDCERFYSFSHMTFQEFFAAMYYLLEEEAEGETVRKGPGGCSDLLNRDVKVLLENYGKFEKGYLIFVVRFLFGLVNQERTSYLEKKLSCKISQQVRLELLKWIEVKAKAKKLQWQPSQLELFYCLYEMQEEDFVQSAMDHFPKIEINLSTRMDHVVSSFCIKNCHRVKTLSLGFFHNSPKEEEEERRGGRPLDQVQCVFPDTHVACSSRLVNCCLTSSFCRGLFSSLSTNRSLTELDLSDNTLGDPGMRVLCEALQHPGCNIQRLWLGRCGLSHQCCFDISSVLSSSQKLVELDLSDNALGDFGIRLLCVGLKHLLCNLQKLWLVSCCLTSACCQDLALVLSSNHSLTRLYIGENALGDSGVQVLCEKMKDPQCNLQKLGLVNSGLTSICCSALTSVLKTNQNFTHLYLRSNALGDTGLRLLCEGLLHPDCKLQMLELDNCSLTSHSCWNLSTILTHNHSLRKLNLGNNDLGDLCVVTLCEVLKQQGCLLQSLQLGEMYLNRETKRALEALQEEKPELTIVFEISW

Row | Average IL-1β ([2]; 25 μM, AH series table) | Average IL-1β ([2]; 50 μM, AH series table) [ng/mL] | Average IL-1β ([2]; 75 μM, AH series table) [ng/mL] | Average (% positive control) [2, 3] | Average (% positive control) [2, 4] [% positive control] | Average (% positive control) [2, 5] [% positive control] | SMILES | Average (% positive control) [1, 3] [% positive control] | Average (% positive control) [1, 4] [% positive control] | Average (% positive control) [1, 5] [% positive control] | cytotoxicity at 25 µM [1, 6] [%] | cytotoxicity at 25 µM [1, 7] [%] | cytotoxicity at 50 µM [1, 8] [%] | cytotoxicity at 50 µM [1, 9] [%] | cytotoxicity at 75 µM [1, 10] [%] | cytotoxicity at 75 µM [1, 11] [%] | IL-1β ([2]; 25 μM, AH series table) | IL-1β ([2]; 50 μM, AH series table) | IL-1β ([2]; 75 μM, AH series table) | further results
1 | – | – | – | – | – | – | O=C(Nc1ccccc1Cl)Nc1ccc([N+](=O)[O-])cc1Cl [A.C2, 3-(2-chloro-4-nitrophen-yl)-1-(2-chlorophenyl)-urea] | – | – | – | – | – | – | – | – | – | – | – | – | cytotoxicity at 18.75 µM ([1]; section 1.4, 18.75 μM, read-out: Average LDH release (% of max.)): 17.8%; cytotoxicity at 37.5 µM ([1]; section 1.4, 37.5 μM, read-out: Average LDH release (% of max.)): 45.7%; cytotoxicity at 75 µM ([1]; section 1.4, 75 μM, read-out: Average LDH release (% of max.)): 75.8%; cytotoxicity at 18.75 µM ([1]; section 1.4, single replicates, 18.75 μM, read-out: LDH release (% of max.)): 18.4%; cytotoxicity at 37.5 µM ([1]; section 1.4, single replicates, 37.5 μM, read-out: LDH release (% of max.)): 46.6%; cytotoxicity at 75 µM ([1]; section 1.4, single replicates, 75 μM, read-out: LDH release (% of max.)): 77.1%; Average (% positive control) ([1]; section 1.4, 18.75 μM, positive control EN22 18.75 μM): 24.912 % positive control; Average (% positive control) ([1]; section 1.4, 37.5 μM, positive control EN22 18.75 μM): 64.016 % positive control; Average (% positive control) ([1]; section 1.4, 75 μM, positive control EN22 18.75 μM): 106.244 % positive control; Average IL-1β ([2]; 18.75 μM): 0.118 ng/mL; IL-1β ([2]; 18.75 μM): 0.128 ng/mL and 0.116 ng/mL and 0.111 ng/mL; Average IL-1β ([2]; 37.5 μM): 0.361 ng/mL; IL-1β ([2]; 37.5 μM): 0.377 ng/ml and 0.353 ng/ml (2×); Average IL-1β ([2]; 75 μM): 0.525 ng/mL; IL-1β ([2]; 75 μM): 0.459 ng/mL and 0.546 ng/mL and 0.571 ng/mL; Average (% positive control) ([2]; 18.75 μM, positive control EN22 18.75 μM): 1.870 % positive control; Average (% positive control) ([2]; 37.5 μM, positive control EN22 18.75 μM): 5.712 % positive control; Average (% positive control) ([2]; 75 μM, positive control EN22 18.75 μM): 8.308 % positive control
2 | 1.177 ng/mL | 1.578 | 1.533 | 11.766 % positive control | 15.776 | 15.328 | O=C(Nc1cc(Cl)cc(Cl)c1)Nc1ccc([N+](=O)[O-])cc1Cl [AH1, 1-(2-chloro-4-nitrophenyl)-3-(3,5-dichlorophenyl) urea] | 53.499 | 74.390 | 78.340 | 41.1 | 42.1 | 57.1 | 55.7 | 60.7 | 60.2 | 1.140 ng/mL and 1.156 ng/mL and 1.234 ng/mL | 1.533 ng/mL and 1.609 ng/mL and 1.592 ng/mL | 1.619 ng/mL and 1.382 ng/mL and 1.598 ng/mL | –
3 | 0.588 ng/mL | 1.519 | 2.224 | 5.875 % positive control | 15.193 | 22.240 | Cc1c(F)cccc1NC(=O)Nc1cccc(Cl)c1 [AH3, 1-(3-chlorophenyl)-3-(3-fluoro-2-methylphenyl) urea] | 16.733 | 29.496 | 44.370 | 12.9 | 12.8 | 22.7 | 22.2 | 34.6 | 34.1 | 0.540 ng/mL and 0.630 ng/mL and 0.593 ng/mL | 1.267 ng/mL and 1.615 ng/mL and 1.675 ng/mL | 2.288 ng/mL and 2.351 ng/mL and 2.032 ng/mL | –
4 | – | – | – | – | – | – | O=C(Nc1ccc2ncccc2c1)NC1CCCCC1 [EN11-02, 1-cyclohexyl-3-(quin-olin-6-yl)urea] | – | – | – | – | – | – | – | – | – | – | – | – | Average (% positive control) [1, 12]: 20.897 % positive control; Average (% positive control) [1, 13]: 21.105 % positive control; Average (% positive control) [1, 14]: 19.808 % positive control; cytotoxicity at 25 µM ([1]; 25 μM, EN11 series table, read-out: Average LDH release (% of max.)): 10.6%; cytotoxicity at 25 µM ([1]; 25 μM, individual replicate values, EN11 series table, read-out: LDH release (% of max.)): 10.8%; cytotoxicity at 50 µM ([1]; 50 μM, EN11 series table, read-out: Average LDH release (% of max.)): 10.7%; cytotoxicity at 50 µM ([1]; 50 μM, individual replicate values, EN11 series table, read-out: LDH release (% of max.)): 10.4%; cytotoxicity at 100 µM ([1]; 100 μM, individual replicate values, read-out: LDH release (% of max.)): 10.1%; cytotoxicity at 100 µM ([1]; 100 μM, read-out: Average LDH release (% of max.)): 10.1%; Average IL-1β ([2]; 25 μM, EN11 series table): 0.015 ng/mL; IL-1β ([2]; 25 μM, EN11 series table): 0.015 ng/mL; Average IL-1β ([2]; 50 μM, EN11 series table): 0.042 ng/mL; IL-1β ([2]; 50 μM, EN11 series table): 0.040 ng/mL and 0.050 ng/mL and 0.036 ng/mL; Average IL-1β ([2]; 100 μM): 0.050 ng/mL; IL-1β ([2]; 100 μM): 0.053 ng/mL and 0.052 ng/mL and 0.046 ng/mL; Average (% positive control) [2, 12]: 1.019 % positive control; Average (% positive control) [2, 13]: 2.832 % positive control; Average (% positive control) [2, 14]: 3.424 % positive control

Row | SMILES | Average IL-1β ([2]; 25 μM, AH series table) | Average IL-1β ([2]; 50 μM, AH series table) [ng/mL] | Average IL-1β ([2]; 75 μM, AH series table) [ng/mL] | Average (% positive control) [2, 3] | Average (% positive control) [2, 4] [% positive control] | Average (% positive control) [2, 5] [% positive control] | Average (% positive control) [1, 3] [% positive control] | Average (% positive control) [1, 4] [% positive control] | Average (% positive control) [1, 5] [% positive control] | cytotoxicity at 25 µM [1, 6] [%] | cytotoxicity at 25 µM [1, 7] [%] | cytotoxicity at 50 µM [1, 8] [%] | cytotoxicity at 50 µM [1, 9] [%] | cytotoxicity at 75 µM [1, 10] [%] | cytotoxicity at 75 µM [1, 11] [%] | IL-1β ([2]; 25 μM, AH series table) | IL-1β ([2]; 50 μM, AH series table) | IL-1β ([2]; 75 μM, AH series table) | further results
5 | O=[N+]([O-])c1ccc(NC(=S)Nc2cccc(Cl)c2)c(Cl)c1 [AH2, 1-(2-chloro-4-nitrophenyl)-3-(3-chlorophenyl) thiourea] | 0.194 ng/mL and 0.251 ng/mL | – | 0.187 | 1.942 % positive control and 2.514 % positive control | – | 1.872 | 29.680 | 28.819 | 33.532 | 22.8 | 23.9 | 22.1 | 22.8 | 25.1 | 25.8 | 0.197 ng/mL and 0.186 ng/mL and 0.200 ng/mL and 0.280 ng/mL and 0.232 ng/mL and 0.243 ng/mL | – | 0.176 ng/ml and 0.193 ng/ml (2×) | –
